One data set relates to Hep3B cells. Description: Cytotoxicity, MTT assay. The data set is classed as cell-based. To be noted: 200 µM, 24 h. The protocol: Figure S19. NOESY spectrum of 2-(2-hydroxyphenyl)oxetan-3-ol (7).
Figure S20. Cytotoxicity of CO hydrosol and its compounds on Hep3B. […]
trans-PO: trans-phenyloxetan-3-ol; cis-PO: cis-phenyloxetan-3-ol; trans-CA: trans- […]
The Hep3B cells were maintained in Dulbecco’s Modified Eagle medium (DMEM; HyClone,Washington, DC, US), supplemented with 10% fetal bovine sera(FBS; Gibco,Waltham, MA, US), 1 mM sodium pyruvate (Corning), and 1% […]
penicillin/streptomycin (Corning) at 37 ℃ in a humidified atmosphere of 5% CO2. Cell viability was measured using a colorimetric MTT assay. Cells were seeded in 96-well plates at a density of 1 × 1 0 4 cells/well. Stock solutions of samples in dimethyl sulfoxide (DMSO; Sigma-Aldrich) were stored in the dark at 4 ℃. Appropriate dilutions were prepared on the day of the experiments. […]
exceed 0.25% (v/v). After 24 h incubated with samples, the culture medium was removed and replaced with fresh medium containing 0.5 mg/mL of MTT (Sigma-Aldrich) for 1 h. The supernatant was removed and added 100 µL DMSO to dissolve formazan. Absorption at 570 nm for each well was measured using an ELISA microplate reader (BioTeck Instruments, Winooski, VT, USA).

The target of data set [1] is T1, PDE5 (Homo sapiens, UniProt O76074).
T1 construct: purchased BPS Bioscience
Description: PDE5 inhibition assay (PDE5A1 assay kit). The data set is classed as biochemical. How it is done:
The PDE5 assay was determined by using a PDE5A1 assay kit (BPS Bioscience, San Diego, CA, USA). The experiments were conducted following the manufacturer’s protocol. Sildenafil (10 nM) was used as a positive control.

Data set [2] relates to PDE5. On the set-up: method as in PMID 18778098. To be noted: cited from earlier work.

Turning to `O[C@H]1CO[C@H]1c1ccccc1` (relative stereo) [cis-phenyloxetan-3-ol], the cytotoxicity entry in the data set with Hep3B cells is “no cytotoxicity”. The compound further yielded an IC50 against PDE5 [1] of 3.4 µM. Besides, at PDE5 [1] (read-out: PDE5 inhibition rate), the inhibition at 0.1 µM was 10.8%, the inhibition at 0.5 µM is 27.1%, the inhibition at 1 µM was 38.1% and the inhibition at 10 µM was 61.9%. Also, the inhibition at 5 µM at PDE5 [1] (5 µM, read-out: PDE5 inhibition rate) was determined as 52.1%.
In the case of `COc1ccc(-c2oc3c(CC=C(C)C)c(O[C@@H]4O[C@H](CO)[C@@H](O)[C@H](O)[C@H]4O)cc(O)c3c(=O)c2O[C@@H]2O[C@@H](C)[C@H](O)[C@@H](O)[C@H]2O)cc1` [icariin], the IC50 with PDE5 [2] is about 5.9 µM.
On to `O[C@@H]1CO[C@H]1c1ccccc1` (relative stereo) [trans-phenyloxetan-3-ol], for which the cytotoxicity entry in the data set with Hep3B cells is recorded as “no cytotoxicity”. The half-inhibitory concentration (IC50) against PDE5 [1] was 4.37 µM. Moreover, on PDE5 [1] (read-out: PDE5 inhibition rate), the inhibition at 0.1 µM stood at 11.5%, the inhibition at 0.5 µM was determined as 26.1%, the inhibition at 1 µM stood at 36.7% and the inhibition at 10 µM was found to be 58.4%. Besides, at PDE5 [1] (20 µM, read-out: PDE5 inhibition rate), the inhibition at 20 µM came out at 65.3%.
With `O=C/C=C/c1ccccc1` [trans-cinnamaldehyde], the PDE5 inhibition rate result with PDE5 [2] (10 µM) is reported as “less than 20%”.

The values above are taken from article PMC11174926, “Composition Characterization of Cinnamomum osmophloeum Kanehira Hydrosol and Its Enhanced Effects on Erectile Function” (Plants, 2024).
